22 molecules from patent publication US20250145594A1, “MODULATORS OF THE INTEGRATED STRESS PATHWAY” (Calico Life Sciences LLC, priority 2020, published 2025) can be followed below.

A value given as a limit tells only on which side of the number the result lay.

As usually defined, the EC50 is the concentration that produces a half-maximal response.

The test has as its system ATF4 luciferase reporter in HEK293T cells. Kind of test: ATF4-Luc assay (in vitro model of VWMD). Format: cell-based, human. The conditions noted are these: HEK293T cells carrying the ATF4 luciferase reporter, 1 μg/mL tunicamycin, One Glo luminescence. Here is the method:
In order to test exemplary compounds of the invention in a cellular context, a stable VWMD cell line was first constructed. The ATF4 reporter was prepared by fusing the human full-length ATF4 5′-UTR (NCBI Accession No. BC022088.2) in front of the firefly luciferase (FLuc) coding sequence lacking the initiator methionine as described in Sidrauski et al (eLife 2013). The construct was used to produce recombinant retroviruses using standard methods and the resulting viral supernatant was used to transduce HEK293T cells, which were then subsequently selected with puromycin to generate a stable cell line.
HEK293T cells carrying the ATF4 luciferase reporter were plated on polylysine coated 384-well plates (Greiner Bio-one) at 30,000 cells per well. Cells were treated the next day with 1 μg/mL tunicamycin and 200 nM of a compound of Formula (I) for 7 hours. Luminescence was measured using One Glo (Promega) as specified by the manufacturer. Cells were maintained in DMEM with L-glutamine supplemented with 10% heat-inactivated FBS (Gibco) and Antibiotic-Antimycotic solution (Gibco).
Table 4 below summarizes the EC50 data obtained using the ATF4-Luc assay for exemplary compounds of the invention.
(Reporter assays use an easily measured gene product as a stand-in for the process of interest.)

As for `O=C(NC12CC(n3cc(N4CC[C@H](OC(F)(F)F)C4)cn3)(C1)C2)[C@H]1C[C@@H](O)c2cc(Cl)ccc2O1` [Compound 355, (2R,4R)-6-chloro-4-hydroxy-N-(3-{4-[(3S)-3-(trifluoromethoxy)pyrrolidin-1-yl]-1H-pyrazol-1-yl}bicyclo[1.1.1]pentan-1-yl)-3,4-dihydro-2H-1-benzopyran-2-carboxamide], where the note is “Homo sapiens, HEK-293T, 7 h”, the EC50 lay in the range of 10 to 50 nM.
Still for that read-out and setting: the same measure for `O=C(COc1ccc(C(F)(F)F)c(F)c1)NC12CC(n3cc(C(=O)N4CC[C@H](OC(F)(F)F)C4)cn3)(C1)C2` [Compound 621, 2-[3-fluoro-4-(trifluoromethyl)phenoxy]-N-(3-{4-[(3S)-3-(trifluoromethoxy)pyrrolidine-1-carbonyl]-1H-pyrazol-1-yl}bicyclo[1.1.1]pentan-1-yl)acetamide]: less than 10 nM; for `O=C(NC12CC(n3cc(OCCOC(F)(F)F)nn3)(C1)C2)[C@H]1C[C@@H](O)c2cc(Cl)ccc2O1` [Compound 487, (2R,4R)-6-chloro-4-hydroxy-N-(3-{4-[2-(trifluoromethoxy)ethoxy]-1H-1,2,3-triazol-1-yl}bicyclo[1.1.1]pentan-1-yl)-3,4-dihydro-2H-1-benzopyran-2-carboxamide]: less than 10 nM; for `O=C(NC12CC(n3cc(N4CC(COC(F)(F)F)C4)cn3)(C1)C2)[C@H]1C[C@@H](O)c2cc(Cl)ccc2O1` [Compound 337, (2R,4R)-6-chloro-4-hydroxy-N-[3-(4-{3-[(trifluoromethoxy)methyl]azetidin-1-yl}-1H-pyrazol-1-yl)bicyclo[1.1.1]pentan-1-yl]-3,4-dihydro-2H-1-benzopyran-2-carboxamide]: 10 to 50 nM.
`O=C(NC12CC(c3ccnc(-n4cc(C(F)(F)F)cn4)c3)(C1)C2)[C@H]1C[C@@H](O)c2cc(Cl)ccc2O1` [Compound 560, (2R,4R)-6-chloro-4-hydroxy-N-(3-{2-[4-(trifluoromethyl)-1H-pyrazol-1-yl]pyridin-4-yl}bicyclo[1.1.1]pentan-1-yl)-3,4-dihydro-2H-1-benzopyran-2-carboxamide]: where the note is “Homo sapiens, HEK-293T, 7 h”, the EC50 was 10 to 50 nM.
`COc1ccc2nn(C34CC(NC(=O)[C@H]5C[C@@H](O)c6cc(Cl)c(F)cc6O5)(C3)C4)cc2n1` [Compound 506, (2R,4R)-6-chloro-7-fluoro-4-hydroxy-N-[3-(5-methoxy-2H-pyrazolo[4,3-b]pyridin-2-yl)bicyclo[1.1.1]pentan-1-yl]-3,4-dihydro-2H-1-benzopyran-2-carboxamide]: the EC50 (Homo sapiens, HEK-293T, 7 h) is less than 10 nM.
For the molecule `C[C@@H](COC(F)(F)F)Oc1cnn(C23CC(NC(=O)[C@H]4C[C@@H](O)c5cc(Cl)ccc5O4)(C2)C3)c1` [Compound 439, (2R,4R)-6-chloro-4-hydroxy-N-[3-(4-{[(2S)-1-(trifluoromethoxy)propan-2-yl]oxy}-1H-pyrazol-1-yl)bicyclo[1.1.1]pentan-1-yl]-3,4-dihydro-2H-1-benzopyran-2-carboxamide], the EC50 (Homo sapiens, HEK-293T, 7 h) is less than 10 nM.
For the molecule `O=C(CO[C@H]1C[C@@H](OC(F)(F)F)C1)NC12CC(NC(=O)[C@@H]3CC(O)c4cc(Cl)ccc4O3)(C1)C2` (stereo in doubt) [Compound 295, (2S,4S)-6-chloro-4-hydroxy-N-[3-(2-{[cis-3-(trifluoromethoxy)cyclobutyl]oxy}acetamido)bicyclo[1.1.1]pentan-1-yl]-3,4-dihydro-2H-1-benzopyran-2-carboxamide], the EC50 (7 hours) was 10 to 50 nM.
With `O=C(NC12CC(n3cc(-c4ccc(C(F)(F)F)cn4)cn3)(C1)C2)[C@@H]1CNc2cc(Cl)ccc2O1` [Compound 573, (2S)-6-chloro-N-(3-{4-[5-(trifluoromethyl)pyridin-2-yl]-1H-pyrazol-1-yl}bicyclo[1.1.1]pentan-1-yl)-3,4-dihydro-2H-1,4-benzoxazine-2-carboxamide], where the note is “Homo sapiens, HEK-293T, 7 h”, the EC50 was 10 to 50 nM.
In the case of `O=C(COC12CC(NC(=O)[C@H]3C[C@@H](O)c4cc(Cl)ccc4O3)(C1)C2)N[C@H]1C[C@@H](OC(F)(F)F)C1` [Compound 342, (2R,4R)-6-chloro-4-hydroxy-N-[3-(2-oxo-2-{[cis-3-(trifluoromethoxy)cyclobutyl]amino}ethoxy)bicyclo[1.1.1]pentan-1-yl]-3,4-dihydro-2H-1-benzopyran-2-carboxamide], the EC50 (Homo sapiens, HEK-293T, 7 h) was in the range of 10 to 50 nM.
Take `O=C(NC12CC(n3cnc(-c4c(F)cc(Cl)cc4F)c3)(C1)C2)[C@H]1C[C@@H](O)c2cc(Cl)ccc2O1` [Compound 344, (2R,4R)-6-chloro-N-{3-[4-(4-chloro-2,6-difluorophenyl)-1H-imidazol-1-yl]bicyclo[1.1.1]pentan-1-yl}-4-hydroxy-3,4-dihydro-2H-1-benzopyran-2-carboxamide]: the EC50 (Homo sapiens, HEK-293T, 7 h) is less than 10 nM.
For the molecule `O=C(NC12CC(OCC(=O)N3CCC(OC(F)(F)F)C3)(C1)C2)[C@H]1C[C@@H](O)c2cc(Cl)ccc2O1` (stereo partly drawn) [Compound 334, (2R,4R)-6-chloro-4-hydroxy-N-(3-{2-oxo-2-[3-(trifluoromethoxy)pyrrolidin-1-yl]ethoxy}bicyclo[1.1.1]pentan-1-yl)-3,4-dihydro-2H-1-benzopyran-2-carboxamide], the EC50 (Homo sapiens, HEK-293T, 7 h) fell in the range of 50 to 250 nM.
For the molecule `O=C(NC12CC(n3cc(-c4ccc(OC(F)(F)F)cn4)cn3)(C1)C2)[C@H]1C[C@@H](O)c2cc(C(F)(F)F)ccc2O1` [Compound 403, (2R,4R)-4-hydroxy-N-(3-{4-[5-(trifluoromethoxy)pyridin-2-yl]-1H-pyrazol-1-yl}bicyclo[1.1.1]pentan-1-yl)-6-(trifluoromethyl)-3,4-dihydro-2H-1-benzopyran-2-carboxamide], the EC50 (Homo sapiens, HEK-293T, 7 h) is less than 10 nM.
On to `O=C(NC12CC(n3cc(N4CC[C@@H](OC(F)(F)F)C4)cn3)(C1)C2)[C@H]1C[C@@H](O)c2cc(Cl)c(F)cc2O1` [Compound 389, (2R,4R)-6-chloro-7-fluoro-4-hydroxy-N-(3-{4-[(3R)-3-(trifluoromethoxy)pyrrolidin-1-yl]-1H-pyrazol-1-yl}bicyclo[1.1.1]pentan-1-yl)-3,4-dihydro-2H-1-benzopyran-2-carboxamide], for which the EC50 (Homo sapiens, HEK-293T, 7 h) was less than 10 nM.
As to `Cc1ccc(-c2cnn(C34CC(NC(=O)[C@H]5C[C@@H](O)c6cc(C(F)(F)F)ccc6O5)(C3)C4)c2)nc1` [Compound 555, (2R,4R)-4-hydroxy-N-{3-[4-(5-methylpyridin-2-yl)-1H-pyrazol-1-yl]bicyclo[1.1.1]pentan-1-yl}-6-(trifluoromethyl)-3,4-dihydro-2H-1-benzopyran-2-carboxamide], for the setting “Homo sapiens, HEK-293T, 7 h”, the EC50 is less than 10 nM.
Turning to `O=C(NC12CC(n3cc(-c4ccc(OC(F)(F)F)cn4)cn3)(C1)C2)[C@H]1C[C@@H](O)c2cc(Cl)ccc2O1` [Compound 308, (2R,4R)-6-chloro-4-hydroxy-N-(3-{4-[5-(trifluoromethoxy)pyridin-2-yl]-1H-pyrazol-1-yl}bicyclo[1.1.1]pentan-1-yl)-3,4-dihydro-2H-1-benzopyran-2-carboxamide], the EC50 (Homo sapiens, HEK-293T, 7 h) was less than 10 nM.
For `COc1ccc2cn(C34CC(NC(=O)[C@H]5C[C@@H](O)c6cc(Cl)ccc6O5)(C3)C4)nc2c1` [Compound 500, (2R,4R)-6-chloro-4-hydroxy-N-[3-(6-methoxy-2H-indazol-2-yl)bicyclo[1.1.1]pentan-1-yl]-3,4-dihydro-2H-1-benzopyran-2-carboxamide], for the setting “Homo sapiens, HEK-293T, 7 h”, the EC50 was in the range of 10 to 50 nM.
With `O=C(NC12CC(c3ccnc(OCCOC(F)(F)F)n3)(C1)C2)[C@H]1C[C@@H](O)c2cc(C(F)(F)F)c(F)cc2O1` [Compound 593, (2R,4R)-7-fluoro-4-hydroxy-N-(3-{2-[2-(trifluoromethoxy)ethoxy]pyrimidin-4-yl}bicyclo[1.1.1]pentan-1-yl)-6-(trifluoromethyl)-3,4-dihydro-2H-1-benzopyran-2-carboxamide], the EC50 (Homo sapiens, HEK-293T, 7 h) lay within 10 to 50 nM.
As for `O=C(N[C@H]1CC[C@H](n2cc(OCCCOC(F)(F)F)cn2)CC1)[C@H]1C[C@@H](O)c2cc(Cl)ccc2O1` [Compound 423, (2R,4R)-6-chloro-4-hydroxy-N-[(1r,4R)-4-{4-[3-(trifluoromethoxy)propoxy]-1H-pyrazol-1-yl}cyclohexyl]-3,4-dihydro-2H-1-benzopyran-2-carboxamide], for the setting “Homo sapiens, HEK-293T, 7 h”, the EC50 was less than 10 nM.
For the molecule `O=C(NC12CC(n3cc(OCCOC(F)(F)F)cn3)(C1)C2)[C@@H]1C[C@@H](O)c2cc(Cl)c(Cl)cc2O1` [Compound 434, (2S,4R)-6,7-dichloro-4-hydroxy-N-(3-{4-[2-(trifluoromethoxy)ethoxy]-1H-pyrazol-1-yl}bicyclo[1.1.1]pentan-1-yl)-3,4-dihydro-2H-1-benzopyran-2-carboxamide], under “Homo sapiens, HEK-293T, 7 h”, the EC50 was less than 10 nM.
As for `O=C(N[C@H]1CC[C@H](n2cc(OCCCC(F)(F)F)cn2)CC1)[C@H]1C[C@@H](O)c2cc(Cl)c(F)cc2O1` [Compound 527, (2R,4R)-6-chloro-7-fluoro-4-hydroxy-N-((1r,4R)-4-[4-(4,4,4-trifluorobutoxy)-1H-pyrazol-1-yl]cyclohexyl)-3,4-dihydro-2H-1-benzopyran-2-carboxamide], the EC50 (Homo sapiens, HEK-293T, 7 h) is less than 10 nM.
Take `O=C(NC12CC(n3cc(C(=O)N4CC(COC(F)(F)F)C4)cn3)(C1)C2)[C@H]1C[C@@H](O)c2cc(Cl)ccc2O1` [Compound 329, (2R,4R)-6-chloro-4-hydroxy-N-[3-(4-{3-[(trifluoromethoxy)methyl]azetidine-1-carbonyl)-1H-pyrazol-1-yl}bicyclo[1.1.1]pentan-1-yl]-3,4-dihydro-2H-1-benzopyran-2-carboxamide]: the EC50 (Homo sapiens, HEK-293T, 7 h) is less than 10 nM.
